# Assay results taken from US20230276703A1, “ORGANIC SEMICONDUCTOR MATERIAL” (The University of Tokyo, priority 2020, published 2023).
# Assay: Solvent solubility evaluation in o-dichlorobenzene
# Assay type: physicochemical
# Settings: heated at 100° C., visual confirmation of dissolution, (w/Vd)×100
# Method: Approximately 1 mg of each compound (accurate weight was w (mg)) was weighed in a sample tube, and 20 μL of o-dichlorobenzene was added thereto by using a micropipette. The sample tube was capped and heated at 100° C. by a hot plate. Whether or not the compound was dissolved was visually confirmed. When the compound was not dissolved, the operation of adding o-dichlorobenzene in an amount of 20 μL per addition until the compound was dissolved and heating to 100° C. was repeated.
# The solubility (wt. %) of the compound was calculated based on the following formula. Note that V in the formula is a volume (μL) of the o-dichlorobenzene added to dissolve the compound, and d is a density (g/cm^3) of the o-dichlorobenzene.
# Solubility (%)=(w/Vd)×100
row,Structure (SMILES),Solubility (%)
1,CCCCCCCCN1C(=O)c2cnc3c4ccc5c6c(cnc(c7ccc1c2c73)c64)C(=O)N5CCCCCCCC [Compound (II)],0.58
2,CCCCCCCCN1C(=S)c2cnc3c4ccc5c6c(cnc(c7ccc1c2c73)c64)C(=S)N5CCCCCCCC [Compound (III)],0.49
3,"O=C1c2ccc3c4ncc5c6c(ccc(c7ncc(c2c37)C(=O)N1CCc1ccccc1)c64)C(=O)N(CCc1ccccc1)C5=O [Compound (IX), reference compound]",<0.0007
4,CCCN1C(=O)c2cnc3c4c(C#N)cc5c6c(cnc(c7c(C#N)cc1c2c37)c64)C(=O)N5CCC [Compound (VI)],0.027
5,CCCCCCN1C(=O)c2cnc3c4c(C#N)cc5c6c(cnc(c7c(C#N)cc1c2c37)c64)C(=O)N5CCCCCC [Compound (VIII)],0.52
6,"CCCCCCCCN1C(=O)c2ccc3c4ncc5c6c(ccc(c7ncc(c2c37)C1=O)c64)C(=O)N(CCCCCCCC)C5=O [Compound (X), reference compound]",0.019
